Literature values, collected in patent US11389471B2, “Systems and methods to improve organ or tissue function and organ or tissue transplant longevity” (Proterris Inc., priority 2014, dated 2022).

Details: CO alveolar concentration of 25 ppm; CFK equation

Question: For `[C-]#[O+]` [CO, carbon monoxide], which “time to reach an equilibration point” value is on record?
Answer: The value was “about 20 hours”.
